For data set [1], the system named is acetaminophen-induced mortality. As to the kind of experiment: Acetaminophen (paracetamol) induced toxicity tests. The format is in vivo. The conditions noted are these: mice; for Protection against the mortality induced by acetaminophen (in words): acetaminophen 600 mg/kg. As for the experimental part:
Various groups of male mice received oral administrations of 600 mg/kg acetaminophen, which is a dose sufficient to cause death within 24 hours in 50% of the animals thus treated.
At the same time as the acetaminophen administration, one group of animals (group G) were administered glutathione (G) and a second (group YG) were administered yeast containing 10% glutathione (YG); a third group (group PC) were administered propionyl L-carnitine (PC); a fourth group (group AA) were administered a combination of glutamic acid, cysteine, glycine and magnesium (AA); a fifth group (group CC) were administered a first combination according to the invention, called the "complete combination" (CC), consisting of PC+G+AA, while a sixth group (group CYC) were administered a second combination according to the invention, called the "complete yeast combination" (CYC), consisting of PC+YG+AA.
These synergistic effects appear even more marked when the mice are administered a 900 mg/kg acetaminophen dose, which causes the deaths of 100% of the animals. In this case, only administration of the complete yeast combination, CYC, protects more than 50% of the animals treated against death (see Table 2).
The protection against acetaminophen at the dose of 900 mg/kg afforded by the new composition was even more marked when the animals were treated for 7 consecutive days prior to acetaminophen administration with the various components of the combination (see Table 3).

In data set [2] the test system is CCl4-intoxicated liver cell cultures. Description: Carbon tetrachloride (CCl4) intoxication tests on isolated rat liver cells. The format is cell-based. The conditions noted are these: for Toxic effects of carbon tetrachloride (in words): CCl4 10 mmol.L^-1. From the text:
The cells used in these tests were isolated rat liver cells after perfusion with collagenase according to the method described by Seglen (Seglen F. O., Method Cell. Biol. Chem. 264:4747, 1989). Approximately 4-6×10^8 viable liver cells were collected, calculated by exclusion of non-viable cells by means of trypan blue.
The cells thus isolated were suspended in 25 cm^2 plastic receptacles in the presence of antibiotics and 10% inactivated fetal calf serum. To the cell suspension thus obtained was added CCl4 (10 mmol.L^-1), glutathione (GSH 20 mg.L^-1), propionyl L-carnitine (100 mg.L^-1) or glutathione combined with propionyl L-carnitine. After a 4-h incubation the percentage of dead cells was estimated by release of lactate dehydrogenase, as described by Casini et al. (Casini et al., J. Biol. Chem., 257:6721, 1982).
The cytological examination of the liver cells was done under both the light and electron microscope after fixation in 3% formalin and paraffin for light microscopy and 3% glutaraldehyde and 1% osmium tetroxide for electron microscopy.

The subject of data set [3] is increase in liver triglycerides induced by CCl4. Description: Carbon tetrachloride-induced liver intoxication tests (liver triglycerides). The format is in vivo. The note with it: rats, CCl4 1 ml.kg^-1 i.p. (20% in olive oil), treated three consecutive days before. As for the experimental part: Another indicator of CCl4 toxicity in the liver is provided by the increased hepatic concentration of triglycerides.
The CCl4 intoxication was induced by giving fasting rats an intraperitoneal injection of 1 ml.kg^-1 of a suspension of 20% CCl4 in olive oil. Prior to CCl4 intoxication the rats were treated for three consecutive days with glutathione (G=50 mg/kg), or with propionyl L-carnitine (PC=100 mg/kg), or with yeast containing 10% glutathione (YG=500 mg/kg), or with a combination of amino acids (AA=glutamic acid 50 mg, cysteine 25 mg, glycine 50 mg, magnesium 5 mg). or with the complete combination CC (CC=PC+G+AA), or with the complete yeast combination CYC (CYC=PC+YG+AA). After administration of CCl4, the livers were excised from the decapitated animals and were used to measure the triglyceride concentration according to the method described by Donabedian (Donabedian R. K., Clin. Chem., 20:632, 1974).

In data set [4] the test system is hypertriglyceridaemia induced in the rat. Description: Protection against experimental hypertriglyceridaemia (fructose) in the rat. The format is in vivo. The note with it: fructose 3 g/kg oral; for Hypertriglyceridaemia (blood triglycerides): five hours after, oral treatment three days before and three hours after. From the text: The method used for this test was that described by Carlson (Carlson L. A. V., J. Atheroscl. Res., 8:667, 1968) and modified as described in Atherosclerosis, 16:349, 1972. According to this test oral administration of 3 g/kg of fructose in the rat induces a substantial increase in both liver and serum triglycerides five hours after administration.
The aim of this test was to assess whether the administration of the components of the composition according to the invention, when used alone or in combination, were capable of leading to a reduction in this triglyceride abnormality which is regarded as underlying severe liver dysfunctions as well as atherosclerosis.
To this end, various groups of rats were treated with glutathione (G=50 mg/kg), with propionyl L-carnitine (PC=50 mg/kg), or with yeast containing 10% glutathione (YG=500 mg/kg), or with an amino acid mixture (AA=glutamic acid 50 mg/kg, cysteine 25 mg/kg, glycine 100 mg/kg+magnesium 5 mg/kg), or with a combination of these various components (at the same doses) without yeast (CC) or with yeast (CYC). The treatment was given orally on the three days preceding fructose administration and for three hours after its administration. Five hours after fructose administration all animals were sacrificed and blood samples were used to assay triglycerides according to the method described by Donabedian (Donabedian R. K., Clin. Chem., 20:632, 1974).

The test system of data set [5] is glycerol-induced kidney failure. Description: Activity against glycerol-induced nephropathy. The note with it: for Protective effect against glycerol-induced kidney lesions (in words): rat; for Urea: rat plasma 24 hours after glycerol injection (10 cc/kg of 50% w/v), treated daily three days before. Format: in vivo, Male Sprague-Dawley rats. As for the experimental part: The method used in this test was that described by Young (Young J. H. K., Meth. Find. Exp. Clin. Pharmacol., 13:23, 1991). According to this test, a glycerol injection induces kidney failure and nephropathy in the rat. This method was used to assess the protective effects of the combination according to the invention on the kidney. Male Sprague-Dawley rats were used, which, after being deprived of drinking water for 24 hours, were injected with 10 cc/kg of a 50% w/v solution of glycerol and water. After the injection, the animals thus treated were allowed to drink. After 24 hours, blood samples were taken from the animals and, after centrifuging, the plasma creatinine concentration was assayed (according to the method described by Taussky H. H., Clin. Chem. Acta, 1:210, 1956) and urea by means of reaction with diacetylmonoxime (Henry R. Y., Cannon D. C. Eds., Clinical Chemistry, 2 Ed. Harper & Rowe, London 1974). Propionyl L-carnitine (100 mg/kg), glutathione (50 mg/kg) or yeast containing glutathione (500 mg/kg), amino acids (25 mg/kg each), yeast (500 mg/kg) and a combination of these at the same doses were administered daily on the three days preceding the test.

The subject of data set [6] is glutathione (GSH) concentration. As to the kind of experiment: Effects on glutathione (GSH) concentration in young and elderly rats. The format is in vivo. As for the experimental part: Since the metabolic and enzymatic activity of glutathione is known to be reduced in elderly rats and this reduction is regarded as one of the causes of ageing, the effect of the administration of the new composition or its individual components on glutathione concentrations in the plasma and liver of young and elderly rats was evaluated.
For this test two different groups of rats were used: young rats (2-3 months) and elderly rats (8-10 months). The glutathione (GSH) concentration was calculated in both groups according to the technique described by Moron (Moron M. S., Biochem. Biophys. Acta, 582:67, 1979) both before the start of the test and after 15 days' daily administration of propionyl L-carnitine (100 mg/kg), glutathione (50 mg/kg), propionyl L-carnitine with glutathione or with yeast containing 10% glutathione (500 mg/kg), amino acids (500 mg/kg) or the combination according to the invention.

For data set [7], the system named is glutathione-depleted rats. Description: Glutathione uptake and concentration in blood of glutathione-depleted (DEM) animals. The format is in vivo, Sprague-Dawley male rats. The note with it: rats depleted with diethylmaleate (DEM) 1 cc/kg i.p.; oral treatment half an hour after; measured 4 h after. As for the experimental part: To this end, the glutathione content in the blood of a group of Sprague-Dawley male rats was reduced by means of the administration of diethylmaleate (DEM)a depletor of glutathione, according to the technique described by Plummer (Plummer J., Chemical depletion of glutathione "in vivo", Methods in Enzymology, 77:50, 1981). DEM was administered intraperitoneally to fasting rats at the dose of 1 cc/kg. Half an hour after injection of diethylmaleate, glutathione alone (50 mg/kg), or yeast containing 10% glutathione (500 mg/kg), or 50 mg/kg of glutathione together with 500 mg of yeast not containing glutathione were administered orally. Another group of rats received glutathione amino acid precursors (glutamic acid 50 mg/kg, glycine 50 mg/kg, cysteine 50 mg/kg, magnesium 10 mg/kg) or the complete combination according to the invention at the same doses as described here above.
After four hours blood samples were taken from the animals thus treated and the plasma glutathione concentration was measured.

Setting [8] is: acetaminophen 900 mg/kg, dead/total, Table 2.
[9] abbreviates: acetaminophen 900 mg/kg, dead/total, table at the place of Table 3, printed as a repeat of TABLE 2.
Setting [10] is: oral acetaminophen 600 mg/kg, substance given at the same time, mortality 24 hours after treatment (dead/total), Table 1.
Where [11] appears, read: CCl4-intoxicated liver cell cultures, table at the place of Table 5, printed as a repeat of TABLE 4.
[12] abbreviates: isolated rat liver cells, CCl4 10 mmol.L^-1, 4-h incubation, lactate dehydrogenase release, GSH 20 mg.L^-1, propionyl L-carnitine 100 mg.L^-1, Table 4.
The mark [13] stands for this setting: elderly rats (8-10 months), liver, after 15 days' daily administration, Table 9.
Where [14] appears, read: elderly rats (8-10 months), liver, before the start of the test, Table 9.
Setting [15] is: elderly rats, 15 days, table at the place of Table 10, printed as a repeat of TABLE 9.
Where [16] appears, read: elderly rats, time 0, table at the place of Table 10, printed as a repeat of TABLE 9.
[17] abbreviates: young rats (2-3 months), liver, after 15 days' daily administration, Table 9.
[18] abbreviates: young rats (2-3 months), liver, before the start of the test, Table 9.
The mark [19] stands for this setting: young rats, 15 days, table at the place of Table 10, printed as a repeat of TABLE 9.
Where [20] appears, read: young rats, time 0, table at the place of Table 10, printed as a repeat of TABLE 9.

As to `N[C@@H](CCC(=O)N[C@@H](CS)C(=O)NCC(=O)O)C(=O)O` [G, N-(N-L-L-γ-glutamyl-cysteinyl) glycine], in data set [1], the “Protection against the mortality induced by acetaminophen (in words)” value is given as “partial protection”. Further, the Mortality was 7/10 in data set [1] (setting [8]), 7/10 in data set [1] (setting [9]) and 4/10 in data set [1] (setting [10]). Moreover, the “% dead cells” value in data set [2] (setting [11]) and in data set [2] (setting [12]) was 55 ± 5% in each case. For the same compound, the “Toxic effects of carbon tetrachloride (in words)” value in data set [2] (isolated rat liver cells) is listed as “capable of reducing the toxic effects of carbon tetrachloride”. In data set [3], the “Triglycerides (liver)” value is 18.7 ± 2.1 mg/g. Moreover, the “Efficacy on serum triglyceride levels induced by fructose (in words)” value in data set [4] is listed as “small efficacy”. In addition, the “Hypertriglyceridaemia (blood triglycerides)” value in data set [4] is recorded as 180 ± 5.9 mg/100 ml. Also, the “Protective effect against glycerol-induced kidney lesions (in words)” value in data set [5] is recorded as “fairly good protective effect”. The Urea in data set [5] turned out to be 79.9 ± 9.9 mg/100 ml. In addition, the “Glutathione concentration in liver, elderly rats, time 15 days” value in data set [6] (setting [13]) and in data set [6] (setting [15]) was 9.90 ± 0.76 GSH ng/mg protein each time. The “Glutathione concentration in liver, elderly rats, time 0” value in data set [6] (setting [14]) and in data set [6] (setting [16]) was 8.82 ± 0.69 GSH ng/mg protein throughout. Besides, the “Glutathione concentration in liver, young rats, time 15 days” value in data set [6] (setting [17]) and in data set [6] (setting [19]) was 12.85 ± 0.66 GSH ng/mg protein throughout. Further, the “Glutathione concentration in liver, young rats, time 0” value in data set [6] (setting [18]) and in data set [6] (setting [20]) was 12.1 ± 0.36 GSH ng/mg protein in each case. Moreover, in data set [7], the “Glutathione (GSH) concentration in plasma” value worked out at 0.95 ± 0.88 mg/dL.
Consider `CCC(=O)O[C@H](CC(=O)[O-])C[N+](C)(C)C` [PC, Propionyl L-carnitine], for which the “Protection against the mortality induced by acetaminophen (in words)” value in data set [1] is “no such protection”. For the same compound, the Mortality is listed as 10/10 in data set [1] (setting [8]), 10/10 in data set [1] (setting [9]) and 6/10 in data set [1] (setting [10]). Besides, the “% dead cells” value in data set [2] (setting [11]) and in data set [2] (setting [12]) was 70 ± 7% in each case. The “Toxic effects of carbon tetrachloride (in words)” value in data set [2] (isolated rat liver cells) is “capable of reducing the toxic effects of carbon tetrachloride”. The “Triglycerides (liver)” value in data set [3] was found to be 20.2 ± 1.9 mg/g. Moreover, in data set [4], the “Efficacy on serum triglyceride levels induced by fructose (in words)” value is recorded as “small efficacy”. Besides, the “Hypertriglyceridaemia (blood triglycerides)” value in data set [4] is on record as 185 ± 7.1 mg/100 ml. Further, in data set [5], the “Protective effect against glycerol-induced kidney lesions (in words)” value is “fairly good protective effect”. Moreover, in data set [5], the Urea turned out to be 88.5 ± 11.5 mg/100 ml. The “Glutathione concentration in liver, elderly rats, time 15 days” value in data set [6] (setting [13]) and in data set [6] (setting [15]) was 9.3 ± 0.46 GSH ng/mg protein throughout. In addition, the “Glutathione concentration in liver, elderly rats, time 0” value in data set [6] (setting [14]) and in data set [6] (setting [16]) was 7.9 ± 0.51 GSH ng/mg protein in each case. For the same compound, the “Glutathione concentration in liver, young rats, time 15 days” value in data set [6] (setting [17]) and in data set [6] (setting [19]) was 12.90 ± 0.71 GSH ng/mg protein in each case. Further, the “Glutathione concentration in liver, young rats, time 0” value in data set [6] (setting [18]) and in data set [6] (setting [20]) was 11.25 ± 0.41 GSH ng/mg protein in each case. The “Glutathione (GSH) concentration in plasma” value in data set [7] was determined as 0.70 ± 0.54 mg/dL.

These data come from US6306392A, “Composition comprising a carnitine and glutathione, useful to increase the absorption of glutathione and synergize its effects” (Sigma-Tau Healthscience S.p.A., priority 1999, dated 2001).
